Results from PubChem BioAssay (NCI).
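Exposure lasted 48 hours, with cells grown in 96-well plates and compounds tested at five concentrations. At the GI50, growth is halved. TGI denotes the concentration required for complete inhibition of growth.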

Tests used:
Test in all cases: DTP human tumour cell line panel, 48 h
SR leukemia = system: SR leukemia
SK-MEL-2 melanoma = system: SK-MEL-2 melanoma
RPMI-8226 leukemia = system: RPMI-8226 leukemia
NCI/ADR-RES ovarian = system: NCI/ADR-RES ovarian
A549 NSCLC = system: A549 NSCLC
OVCAR-8 ovarian = system: OVCAR-8 ovarian
SNB-75 CNS = system: SNB-75 CNS
SF-539 CNS = system: SF-539 CNS
SF-295 CNS = system: SF-295 CNS
MCF7 breast = system: MCF7 breast

## CN(C)C1CCN(Cc2ccc(NC(=O)c3cncc(C#Cc4cnc(N)c5ncccc45)c3)cc2C(F)(F)F)CC1
SR leukemia
  GI50: 2.05 µM
  TGI: 50 µM
SK-MEL-2 melanoma
  GI50: 8.02 µM
  TGI: 19.8 µM
RPMI-8226 leukemia
  GI50: 4.31 µM
  TGI: 17 µM
NCI/ADR-RES ovarian
  GI50: 1.23 µM
  TGI: 2.7 µM
A549 NSCLC
  GI50: 8.25 µM
  TGI: 19.2 µM
OVCAR-8 ovarian
  GI50: 9.11 µM
  TGI: 29 µM
SNB-75 CNS
  GI50: 5.39 µM
  TGI: 11.5 µM
SF-539 CNS
  GI50: 2.13 µM
  TGI: 8.98 µM
SF-295 CNS
  GI50: 8.88 µM
  TGI: 17.3 µM

## O=C1C(=c2ccc(=C3C(=O)c4ccc([N+](=O)[O-])cc4[N+]3=O)cc2)N([O-])c2cc([N+](=O)[O-])ccc21
SK-MEL-2 melanoma
  GI50: > 100 µM
  TGI: > 100 µM
A549 NSCLC
  GI50: > 100 µM
  TGI: > 100 µM
OVCAR-8 ovarian
  GI50: > 100 µM
  TGI: > 100 µM
SNB-75 CNS
  TGI: 69.8 µM
SF-539 CNS
  GI50: > 100 µM
  TGI: > 100 µM

## NC1N=Nc2ccccc21 (stereo not drawn)
SR leukemia
  TGI: > 100 µM
SK-MEL-2 melanoma
  TGI: > 100 µM
RPMI-8226 leukemia
  TGI: > 100 µM
A549 NSCLC
  TGI: > 100 µM
OVCAR-8 ovarian
  TGI: > 100 µM
SNB-75 CNS
  TGI: > 100 µM
SF-539 CNS
  TGI: > 100 µM
SF-295 CNS
  TGI: > 100 µM

## COc1cccc(C=O)c1C(=O)c1cc(O)ccc1O
SR leukemia
  TGI: 24.1 µM
SK-MEL-2 melanoma
  TGI: > 100 µM
A549 NSCLC
  TGI: > 100 µM
OVCAR-8 ovarian
  TGI: 46.5 µM
SNB-75 CNS
  TGI: > 100 µM
SF-539 CNS
  TGI: > 100 µM
SF-295 CNS
  TGI: > 100 µM

## C/C(CCn1[nH]c(=O)ccc1=O)=N\NC(=O)C(N)=O
SK-MEL-2 melanoma
  TGI: > 100 µM
A549 NSCLC
  TGI: > 100 µM
OVCAR-8 ovarian
  TGI: > 100 µM
SNB-75 CNS
  TGI: > 100 µM
SF-539 CNS
  TGI: > 100 µM
SF-295 CNS
  TGI: > 100 µM

## O=Cc1cccc2ccc3ccccc3c12
SK-MEL-2 melanoma
  TGI: 38 µM
NCI/ADR-RES ovarian
  TGI: 38.3 µM
A549 NSCLC
  TGI: 85.3 µM
OVCAR-8 ovarian
  TGI: > 100 µM
SNB-75 CNS
  TGI: 43.6 µM
MCF7 breast
  TGI: 37.4 µM
SF-539 CNS
  TGI: 23 µM
SF-295 CNS
  TGI: 50.2 µM

## O=C(CCC(=O)Nc1ccc(Cl)c(Cl)c1)CC(=O)c1ccc2ccccc2c1
SK-MEL-2 melanoma
  TGI: > 100 µM
RPMI-8226 leukemia
  TGI: > 100 µM
A549 NSCLC
  TGI: > 100 µM
OVCAR-8 ovarian
  TGI: > 100 µM
SNB-75 CNS
  TGI: > 100 µM
SF-539 CNS
  TGI: > 100 µM
SF-295 CNS
  TGI: > 100 µM

## O=C(CN1CCN(Cc2ccccc2Cl)CC1)NC1CC(=O)c2c(Br)sc(Br)c21 (stereo not drawn)
SK-MEL-2 melanoma
  GI50: 15.7 µM
  TGI: 31.4 µM
RPMI-8226 leukemia
  GI50: 16.6 µM
  TGI: 38.5 µM
NCI/ADR-RES ovarian
  GI50: 19.6 µM
  TGI: 41.9 µM
A549 NSCLC
  GI50: 41.9 µM
  TGI: > 100 µM
OVCAR-8 ovarian
  GI50: 24.8 µM
  TGI: 54.8 µM
MCF7 breast
  GI50: 18.1 µM
  TGI: 33.8 µM
SF-539 CNS
  GI50: 20.3 µM
  TGI: 36.1 µM
SF-295 CNS
  GI50: 25.6 µM
  TGI: 57.6 µM

## CC1CCC2C(C)C(=O)OC3OC4(C)CCC1C32OO4 (stereo not drawn)
SR leukemia
  GI50: > 100 µM
  TGI: > 100 µM
SK-MEL-2 melanoma
  TGI: > 100 µM
RPMI-8226 leukemia
  TGI: > 100 µM
A549 NSCLC
  TGI: > 100 µM
OVCAR-8 ovarian
  GI50: > 100 µM
  TGI: > 100 µM
SNB-75 CNS
  TGI: > 97.2 µM
MCF7 breast
  GI50: > 100 µM
  TGI: > 100 µM
SF-539 CNS
  TGI: > 100 µM
SF-295 CNS
  TGI: > 100 µM

## O=C(C=Nc1ccccc1C(=O)[O-])c1cccs1.O=C(C=Nc1ccccc1C(=O)[O-])c1cccs1.[Ni+2]
SR leukemia
  TGI: > 100 µM
SK-MEL-2 melanoma
  TGI: > 100 µM
A549 NSCLC
  TGI: > 100 µM
OVCAR-8 ovarian
  TGI: > 100 µM
SF-539 CNS
  TGI: > 100 µM
SF-295 CNS
  TGI: > 100 µM

## O=[N+]([O-])c1cc(-c2nc(=S)[nH][nH]2)ccc1O
SK-MEL-2 melanoma
  TGI: > 100 µM
A549 NSCLC
  TGI: > 100 µM
SF-539 CNS
  TGI: > 100 µM
SF-295 CNS
  TGI: > 100 µM

## O=C(O)CN(c1ccccc1)S(=O)(=O)c1cccc([N+](=O)[O-])c1
SK-MEL-2 melanoma
  TGI: > 100 µM
RPMI-8226 leukemia
  TGI: > 100 µM
A549 NSCLC
  TGI: > 100 µM
OVCAR-8 ovarian
  TGI: > 100 µM
SNB-75 CNS
  TGI: > 100 µM
SF-539 CNS
  TGI: > 100 µM
SF-295 CNS
  TGI: > 100 µM

## O=C([O][Hg][c]1ccccc1)c1ccccc1
SR leukemia
  GI50: 0.382 µM
  TGI: 2.35 µM
SK-MEL-2 melanoma
  GI50: 1.35 µM
  TGI: 2.91 µM
RPMI-8226 leukemia
  GI50: 1.23 µM
  TGI: 4.56 µM
NCI/ADR-RES ovarian
  GI50: 3.32 µM
  TGI: > 27.4 µM
A549 NSCLC
  GI50: 12.7 µM
  TGI: 40 µM
SNB-75 CNS
  GI50: 1.23 µM
  TGI: 3.63 µM
SF-539 CNS
  GI50: 1.58 µM
  TGI: 3.26 µM
SF-295 CNS
  GI50: 12.2 µM
  TGI: 25.5 µM

## Nc1nc(N)c(CCCCc2ccccc2)c(C=O)n1
SK-MEL-2 melanoma
  TGI: 40.3 µM
RPMI-8226 leukemia
  TGI: 41.2 µM
A549 NSCLC
  TGI: > 100 µM
OVCAR-8 ovarian
  TGI: 45 µM
SNB-75 CNS
  TGI: 38 µM
SF-539 CNS
  TGI: 36.3 µM
SF-295 CNS
  TGI: 64.7 µM

## COC(=O)[C@H]1COC(=S)N1C(=O)[C@@H](C)[C@H](O)C(C)C
SR leukemia
  TGI: > 100 µM
SK-MEL-2 melanoma
  TGI: > 100 µM
RPMI-8226 leukemia
  TGI: > 100 µM
A549 NSCLC
  TGI: > 100 µM
OVCAR-8 ovarian
  TGI: > 100 µM
SNB-75 CNS
  TGI: > 100 µM
SF-539 CNS
  TGI: > 100 µM
SF-295 CNS
  TGI: > 100 µM

## Fc1cc(F)c(F)c(S)c1F
SK-MEL-2 melanoma
  TGI: > 100 µM
RPMI-8226 leukemia
  TGI: > 100 µM
NCI/ADR-RES ovarian
  TGI: 38.6 µM
A549 NSCLC
  TGI: > 100 µM
OVCAR-8 ovarian
  TGI: > 100 µM
SNB-75 CNS
  TGI: > 100 µM
MCF7 breast
  TGI: > 100 µM
SF-539 CNS
  TGI: > 100 µM
SF-295 CNS
  TGI: > 100 µM
